System: atherosclerotic lesions on thoracic and abdominal aorta
Assay: Atherosclerotic lesions in rabbits fed a hypercholesterolemic diet
Type: in vivo, New Zealand rabbits
Settings: hypercholesterolemic diet (0.2% w/w cholesterol), substance in diet, 8 week-treatment, aorta stained with Sudan IV
Description: The complexes of the invention dose-dependently prevent or reduce the formation of, atherosclerotic plaques. The activity was evidenced in rabbits fed with a hypercholesterolemic diet so as to induce atherosclerotic lesions similar to the human ones at the vasal level, particularly at the aortal arch, ventral aorta, carotids and cerebral vessels. In said model, the above mentioned phospholipid complexes change the macro- and microscopical vascular condition reducing, compared with untreated animals, both the number and the severity of the atheromatous plagues, with surprising vascular-tissutal benefit.
32 New Zealand rabbits were divided in 4 groups of 8 animals each, and treated as follows:
Group 1): Control, normal diet
Group 2): Hypercholesterolemic diet (0.2% w/w cholesterol)
Group 3): Hypercholesterolemic diet+phospholipid complex of proanthocyanidin A2 extract (0.2% cholesterol+2% w/w complex of Example 1).
Group 4): Hypercholesterolemic diet+proanthocyanidin A2 extract (0.2% cholesterol+amount of proanthocyanidin A2 equivalent to that present in 2% w/w of the complex of Example 1). After 8 week-treatment, during which cholesterol, LDL/VLDL, HDL and triglycerids levels were measured, the animals were killed.
The number, size and distribution of the atherosclerotic lesions on thoracic and abdominal aorta were evaluated. […]

Oc1cc(O)c2c(c1)O[C@@]1(c3ccc(O)c(O)c3)Oc3cc(O)c4c(c3C2[C@H]1O)OC(c1ccc(O)c(O)c1)[C@H](O)C4 (stereo partly shown) [proanthocyanidin A2]
area percent of the lesion: 30%
